These results are taken from ChEMBL document CHEMBL5653615 (J Biol Chem, 2013).

In assay [1] the target is Casein kinase I isoform gamma-2 (Homo sapiens) (UniProt P78368). The assay can be described thus: Inhibition of human CK1g2 at 1.82 nM by HotSpot assay relative to control.
The target in assay [2] is T1, Megakaryocyte-associated tyrosine-protein kinase (Homo sapiens) (UniProt P42679).
T1 sequence (whole entry): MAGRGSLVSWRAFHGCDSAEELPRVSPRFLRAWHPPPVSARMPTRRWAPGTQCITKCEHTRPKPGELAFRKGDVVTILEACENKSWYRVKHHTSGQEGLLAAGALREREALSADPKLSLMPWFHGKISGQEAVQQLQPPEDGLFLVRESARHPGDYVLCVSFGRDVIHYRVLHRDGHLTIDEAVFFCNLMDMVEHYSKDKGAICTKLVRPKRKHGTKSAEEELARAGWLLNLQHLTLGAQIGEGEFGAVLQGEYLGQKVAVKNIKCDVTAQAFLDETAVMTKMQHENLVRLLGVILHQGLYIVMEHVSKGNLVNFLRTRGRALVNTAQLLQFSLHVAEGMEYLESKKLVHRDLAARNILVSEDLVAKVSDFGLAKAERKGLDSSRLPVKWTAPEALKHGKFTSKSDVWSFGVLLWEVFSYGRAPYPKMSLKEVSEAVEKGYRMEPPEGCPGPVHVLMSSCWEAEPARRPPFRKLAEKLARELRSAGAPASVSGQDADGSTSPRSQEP
The assay can be described thus: Inhibition of human CTK at 1.82 nM by HotSpot assay relative to control.

In assay [3] the target is G protein-coupled receptor kinase 4 (Homo sapiens) (UniProt P32298). Nature of the assay: Inhibition of human GRK4 at 1.82 nM by HotSpot assay relative to control.
Chain of G protein-coupled receptor kinase 4 (Homo sapiens) (P32298 whole entry, looked up): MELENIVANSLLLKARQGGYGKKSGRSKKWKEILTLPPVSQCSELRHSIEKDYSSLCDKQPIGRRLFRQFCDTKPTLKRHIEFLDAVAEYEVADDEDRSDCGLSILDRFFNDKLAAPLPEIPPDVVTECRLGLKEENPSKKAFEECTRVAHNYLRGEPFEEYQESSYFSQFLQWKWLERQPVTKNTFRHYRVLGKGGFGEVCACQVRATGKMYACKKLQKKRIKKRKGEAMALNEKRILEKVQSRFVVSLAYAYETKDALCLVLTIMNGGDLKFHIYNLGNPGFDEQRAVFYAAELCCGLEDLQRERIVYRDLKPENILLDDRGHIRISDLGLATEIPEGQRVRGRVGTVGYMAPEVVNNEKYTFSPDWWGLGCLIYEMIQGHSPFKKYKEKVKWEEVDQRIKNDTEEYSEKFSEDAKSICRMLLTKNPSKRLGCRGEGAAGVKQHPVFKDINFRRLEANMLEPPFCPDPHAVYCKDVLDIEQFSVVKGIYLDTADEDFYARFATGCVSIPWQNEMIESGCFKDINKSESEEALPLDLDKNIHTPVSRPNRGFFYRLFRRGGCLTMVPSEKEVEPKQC
Assay [4] has as its target Mitogen-activated protein kinase kinase kinase 11 (Homo sapiens) (UniProt Q16584). The assay can be described thus: Inhibition of human MAP3K11 at 1.82 nM by HotSpot assay relative to control.
Assay [5] has as its target Protein kinase C alpha type (Homo sapiens) (UniProt P17252). The assay can be described thus: Inhibition of human PKCa at 1.82 nM by HotSpot assay relative to control.
In assay [6] the target is Ribosomal protein S6 kinase alpha-3 (Homo sapiens) (UniProt P51812). The assay can be described thus: Inhibition of human RSK2 at 1.82 nM by HotSpot assay relative to control.
Chain of Ribosomal protein S6 kinase alpha-3 (Homo sapiens) (P51812 whole entry): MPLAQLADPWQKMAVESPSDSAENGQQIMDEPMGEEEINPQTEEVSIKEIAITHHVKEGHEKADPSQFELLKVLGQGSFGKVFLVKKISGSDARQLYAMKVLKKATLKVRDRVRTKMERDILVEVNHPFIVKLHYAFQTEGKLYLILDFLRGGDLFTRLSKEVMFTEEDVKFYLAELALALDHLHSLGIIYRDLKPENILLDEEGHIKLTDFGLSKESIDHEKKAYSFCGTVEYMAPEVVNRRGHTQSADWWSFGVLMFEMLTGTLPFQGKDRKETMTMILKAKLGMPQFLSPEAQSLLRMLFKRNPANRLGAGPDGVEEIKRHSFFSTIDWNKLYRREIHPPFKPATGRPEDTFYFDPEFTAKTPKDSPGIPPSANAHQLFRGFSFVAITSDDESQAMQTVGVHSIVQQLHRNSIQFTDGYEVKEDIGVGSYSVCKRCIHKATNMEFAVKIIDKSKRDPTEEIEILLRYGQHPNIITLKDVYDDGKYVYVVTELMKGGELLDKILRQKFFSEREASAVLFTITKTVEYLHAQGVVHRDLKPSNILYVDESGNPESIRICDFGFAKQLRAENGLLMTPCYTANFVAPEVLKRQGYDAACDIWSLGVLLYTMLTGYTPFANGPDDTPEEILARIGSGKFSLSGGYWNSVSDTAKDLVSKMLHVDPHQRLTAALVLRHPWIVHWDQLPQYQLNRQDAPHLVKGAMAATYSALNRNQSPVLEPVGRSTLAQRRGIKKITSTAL
The target in assay [7] is STE20/SPS1-related proline-alanine-rich protein kinase (Homo sapiens) (UniProt Q9UEW8). The assay can be described thus: Inhibition of human STLK3 at 1.82 nM by HotSpot assay relative to control.
Assay [8] has as its target Serine/threonine-protein kinase pim-2 (Homo sapiens) (UniProt Q9P1W9). Nature of the assay: Inhibition of human PIM2 at 500 nM by HotSpot assay relative to control.
For assay [9], the target named is CDK9/Cyclin K (Homo sapiens) (UniProt P50750+O75909). Nature of the assay: Inhibition of human CDK9/cyclin K at 18.6 nM by HotSpot assay relative to control. Format: protein-complex assay.
For assay [10], the target named is Ephrin type-A receptor 4 (Homo sapiens) (UniProt P54764). The assay can be described thus: Inhibition of human EPHA4 at 18.6 nM by HotSpot assay relative to control.
Chain of Ephrin type-A receptor 4 (Homo sapiens) (P54764 whole entry): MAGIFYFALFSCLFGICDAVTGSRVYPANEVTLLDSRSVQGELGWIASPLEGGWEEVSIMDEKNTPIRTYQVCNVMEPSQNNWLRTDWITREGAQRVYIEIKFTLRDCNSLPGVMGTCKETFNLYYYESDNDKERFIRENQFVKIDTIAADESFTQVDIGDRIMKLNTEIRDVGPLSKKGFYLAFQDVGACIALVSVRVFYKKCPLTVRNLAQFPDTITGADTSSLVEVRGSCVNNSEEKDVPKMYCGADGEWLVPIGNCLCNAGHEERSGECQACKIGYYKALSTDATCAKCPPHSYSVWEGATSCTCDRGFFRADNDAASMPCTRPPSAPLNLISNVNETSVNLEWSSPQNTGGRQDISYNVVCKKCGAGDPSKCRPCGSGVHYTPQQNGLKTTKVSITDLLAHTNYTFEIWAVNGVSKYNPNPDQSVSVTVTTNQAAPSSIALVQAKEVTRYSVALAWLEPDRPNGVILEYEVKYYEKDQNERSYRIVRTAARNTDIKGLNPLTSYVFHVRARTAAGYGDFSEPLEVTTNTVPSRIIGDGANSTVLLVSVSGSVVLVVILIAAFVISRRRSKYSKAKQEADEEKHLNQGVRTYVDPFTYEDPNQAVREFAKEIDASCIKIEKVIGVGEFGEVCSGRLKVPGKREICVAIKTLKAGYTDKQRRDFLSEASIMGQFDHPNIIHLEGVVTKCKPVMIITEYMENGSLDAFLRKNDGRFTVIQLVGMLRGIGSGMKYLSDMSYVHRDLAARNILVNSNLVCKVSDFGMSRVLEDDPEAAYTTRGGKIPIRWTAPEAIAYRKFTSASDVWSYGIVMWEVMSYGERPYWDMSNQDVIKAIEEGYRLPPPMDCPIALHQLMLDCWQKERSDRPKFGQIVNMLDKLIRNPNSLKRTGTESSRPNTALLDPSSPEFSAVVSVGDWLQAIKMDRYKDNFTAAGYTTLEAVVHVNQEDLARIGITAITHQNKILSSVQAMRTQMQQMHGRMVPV
The target in assay [11] is Maternal embryonic leucine zipper kinase (Homo sapiens) (UniProt Q14680). The assay can be described thus: Inhibition of human MELK at 18.6 nM by HotSpot assay relative to control.
The target in assay [12] is T2, cAMP-dependent protein kinase catalytic subunit PRKX (Homo sapiens) (UniProt P51817).
T2 sequence (whole entry): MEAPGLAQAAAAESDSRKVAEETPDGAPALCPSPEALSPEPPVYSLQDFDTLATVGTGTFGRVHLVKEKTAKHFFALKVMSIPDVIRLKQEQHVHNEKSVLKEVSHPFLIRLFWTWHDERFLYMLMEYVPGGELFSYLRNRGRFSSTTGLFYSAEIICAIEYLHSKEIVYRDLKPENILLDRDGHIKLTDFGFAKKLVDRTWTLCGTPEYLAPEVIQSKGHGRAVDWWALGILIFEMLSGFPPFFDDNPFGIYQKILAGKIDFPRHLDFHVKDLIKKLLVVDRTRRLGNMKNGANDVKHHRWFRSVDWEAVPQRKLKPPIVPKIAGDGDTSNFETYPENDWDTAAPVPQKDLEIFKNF
The assay can be described thus: Inhibition of human PRKX at 18.6 nM by HotSpot assay relative to control.

Assay [13] has as its target T3, Serine/threonine-protein kinase ULK2 (Homo sapiens) (UniProt Q8IYT8).
T3 sequence (whole entry): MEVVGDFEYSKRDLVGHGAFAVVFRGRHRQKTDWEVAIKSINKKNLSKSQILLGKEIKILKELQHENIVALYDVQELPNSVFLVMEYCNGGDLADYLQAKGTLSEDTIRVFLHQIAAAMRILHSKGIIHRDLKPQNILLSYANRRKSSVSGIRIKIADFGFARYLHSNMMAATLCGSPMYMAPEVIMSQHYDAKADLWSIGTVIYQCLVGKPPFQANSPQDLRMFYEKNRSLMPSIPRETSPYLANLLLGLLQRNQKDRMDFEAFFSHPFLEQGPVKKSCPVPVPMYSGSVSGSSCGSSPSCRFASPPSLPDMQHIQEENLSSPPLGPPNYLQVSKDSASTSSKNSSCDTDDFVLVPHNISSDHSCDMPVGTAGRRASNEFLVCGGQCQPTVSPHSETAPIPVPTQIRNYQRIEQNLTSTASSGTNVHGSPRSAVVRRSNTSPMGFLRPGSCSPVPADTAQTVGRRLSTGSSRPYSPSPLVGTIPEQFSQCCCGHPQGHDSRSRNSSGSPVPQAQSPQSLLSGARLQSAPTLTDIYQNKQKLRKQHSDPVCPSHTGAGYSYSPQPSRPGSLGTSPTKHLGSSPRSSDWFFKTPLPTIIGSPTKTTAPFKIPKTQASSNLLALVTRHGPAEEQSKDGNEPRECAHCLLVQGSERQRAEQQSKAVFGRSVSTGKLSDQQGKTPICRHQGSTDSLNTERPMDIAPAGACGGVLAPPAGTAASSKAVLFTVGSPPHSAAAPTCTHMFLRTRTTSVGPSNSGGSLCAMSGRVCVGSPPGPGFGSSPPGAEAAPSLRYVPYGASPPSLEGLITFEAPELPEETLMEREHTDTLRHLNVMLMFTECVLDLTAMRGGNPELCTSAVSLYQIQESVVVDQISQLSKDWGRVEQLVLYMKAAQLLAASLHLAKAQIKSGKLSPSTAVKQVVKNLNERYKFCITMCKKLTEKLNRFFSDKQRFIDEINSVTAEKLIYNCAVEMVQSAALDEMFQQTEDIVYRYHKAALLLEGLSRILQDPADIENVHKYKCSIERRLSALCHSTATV
Nature of the assay: Inhibition of human ULK2 at 18.6 nM by HotSpot assay relative to control.

Chain of Serine/threonine-protein kinase pim-2 (Homo sapiens) (Q9P1W9 whole entry, looked up): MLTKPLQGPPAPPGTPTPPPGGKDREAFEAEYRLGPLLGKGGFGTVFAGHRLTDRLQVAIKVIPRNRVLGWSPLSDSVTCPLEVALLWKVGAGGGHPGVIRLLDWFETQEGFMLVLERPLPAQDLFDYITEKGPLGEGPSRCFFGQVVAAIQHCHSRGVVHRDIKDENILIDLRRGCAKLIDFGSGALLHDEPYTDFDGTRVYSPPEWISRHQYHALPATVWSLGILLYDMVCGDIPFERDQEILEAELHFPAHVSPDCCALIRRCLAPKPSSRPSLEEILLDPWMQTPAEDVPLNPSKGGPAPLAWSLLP
Chain of Mitogen-activated protein kinase kinase kinase 11 (Homo sapiens) (Q16584 whole entry, looked up): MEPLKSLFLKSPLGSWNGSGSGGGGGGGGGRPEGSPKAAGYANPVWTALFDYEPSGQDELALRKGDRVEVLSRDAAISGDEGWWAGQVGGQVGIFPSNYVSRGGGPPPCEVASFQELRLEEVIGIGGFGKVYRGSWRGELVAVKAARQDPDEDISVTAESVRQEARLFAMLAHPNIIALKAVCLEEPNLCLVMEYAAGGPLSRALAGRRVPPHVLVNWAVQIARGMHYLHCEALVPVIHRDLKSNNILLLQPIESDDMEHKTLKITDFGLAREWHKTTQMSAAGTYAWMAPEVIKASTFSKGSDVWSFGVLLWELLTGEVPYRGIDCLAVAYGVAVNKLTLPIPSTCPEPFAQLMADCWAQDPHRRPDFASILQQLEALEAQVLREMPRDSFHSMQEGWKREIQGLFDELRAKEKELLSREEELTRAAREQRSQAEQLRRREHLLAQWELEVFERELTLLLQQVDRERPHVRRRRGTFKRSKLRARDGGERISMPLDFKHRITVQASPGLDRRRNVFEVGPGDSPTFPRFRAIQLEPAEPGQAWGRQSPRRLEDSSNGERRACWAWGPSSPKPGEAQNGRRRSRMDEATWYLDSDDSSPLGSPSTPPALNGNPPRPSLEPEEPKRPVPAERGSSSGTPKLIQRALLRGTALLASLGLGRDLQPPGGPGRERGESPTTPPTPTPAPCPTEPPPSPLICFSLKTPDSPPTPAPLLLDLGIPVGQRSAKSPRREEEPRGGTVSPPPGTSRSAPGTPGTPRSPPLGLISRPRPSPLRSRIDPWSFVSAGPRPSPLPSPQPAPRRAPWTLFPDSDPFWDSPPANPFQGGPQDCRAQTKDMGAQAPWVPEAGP
Chain of Casein kinase I isoform gamma-2 (Homo sapiens) (P78368 whole entry, looked up, canonical isoform): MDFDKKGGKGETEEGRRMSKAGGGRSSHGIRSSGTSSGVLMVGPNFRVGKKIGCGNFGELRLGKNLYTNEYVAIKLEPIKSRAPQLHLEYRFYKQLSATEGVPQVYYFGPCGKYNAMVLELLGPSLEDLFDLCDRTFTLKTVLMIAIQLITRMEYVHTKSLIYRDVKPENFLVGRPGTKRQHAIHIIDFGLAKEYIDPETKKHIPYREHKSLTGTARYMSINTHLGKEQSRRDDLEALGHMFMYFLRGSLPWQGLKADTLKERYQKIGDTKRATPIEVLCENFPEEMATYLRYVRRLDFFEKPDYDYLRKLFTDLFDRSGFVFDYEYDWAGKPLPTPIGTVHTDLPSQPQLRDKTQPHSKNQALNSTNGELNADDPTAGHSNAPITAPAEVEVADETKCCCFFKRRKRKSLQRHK

Take `C[C@@]1(C(=O)Nc2ccc(F)nc2)CCCN1c1nc(Nc2cc(C3CC3)n[nH]2)c2cccn2n1`: the inhibition is -3.24% in assay [1]; -1.93% in assay [2]; 0.72% in assay [3]; 2.47% in assay [4]; -5.95% in [5]; 2.83% in [6]. For the same compound, in [7], the inhibition was -5.74%.
On to `Nc1n[nH]c2nnc(-c3c(-c4ccccc4)nn4ccccc34)cc12`, for which, in assay [8], the inhibition came to 8.35%.
As for `C[C@]1(O)C[C@@H](c2nc(-c3ccc4ccc(-c5ccccc5)nc4c3)c3c(N)nccn32)C1`, the inhibition in [9] is 1.45%; in assay [10], -8.39%; in [11] it was -2.08%; in assay [12] it was -0.35%; in [13], 2.12%.
